The results in this text go back to ChEMBL document CHEMBL4402590, “Small-Molecule Antagonist Targeting Exportin-1 via Rational Structure-Based Discovery” (J Med Chem, 2020).

One may read the IC50 as the concentration at which inhibition is half-maximal. A higher IC50 goes with weaker potency.

Assay [1] relates to Mus musculus. As to the kind of experiment: Anti-inflammatory activity against DSS-induced ulcerative colitis C57BL/6J mouse model assessed as reduction in colon inflammation at 10 mg/kg, po administered for 7 days and measured on day 7. Format: functional, organism-based.
For assay [2], the system named is Mus musculus. As to the kind of experiment: Anti-inflammatory activity against DSS-induced ulcerative colitis C57BL/6J mouse model assessed as reduction in TNFalpha production at 10 mg/kg, po administered for 7 days and measured on day 7 by ELISA. The format is functional, organism-based. Background: An ELISA detects its analyte on a solid surface through an enzyme-linked reagent.

Assay [3] concerns Mus musculus. As to the kind of experiment: Anti-inflammatory activity against DSS-induced ulcerative colitis C57BL/6J mouse model assessed as reduction in IL-1beta production at 10 mg/kg, po administered for 7 days and measured on day 7 by ELISA. The format is functional, organism-based.
Assay [4] relates to Mus musculus. As to the kind of experiment: Anti-inflammatory activity against DSS-induced ulcerative colitis C57BL/6J mouse model assessed as reduction in body weight loss at 10 mg/kg, po administered for 7 days and measured daily. The format is functional, organism-based.
For assay [5], the system named is Mus musculus. As to the kind of experiment: Anti-inflammatory activity against DSS-induced ulcerative colitis C57BL/6J mouse model assessed as restoration of colon length at 10 mg/kg, po administered for 7 days and measured on day 7. The format is functional, organism-based.
The test system of assay [6] is Mus musculus. As to the kind of experiment: Anti-inflammatory activity against DSS-induced ulcerative colitis C57BL/6J mouse model assessed as reduction in colon swelling at 10 mg/kg, po administered for 7 days and measured on day 7. Format: functional, organism-based.
For assay [7], the system named is Mus musculus. As to the kind of experiment: Anti-inflammatory activity against DSS-induced ulcerative colitis C57BL/6J mouse model assessed as reduction in colon ulceration at 10 mg/kg, po administered for 7 days and measured on day 7. The format is functional, organism-based.
Assay [8] relates to Mus musculus. As to the kind of experiment: Anti-inflammatory activity against DSS-induced ulcerative colitis C57BL/6J mouse model assessed as reduction in IL-6 production at 10 mg/kg, po administered for 7 days and measured on day 7 by ELISA. The format is functional, organism-based.
The subject of assay [9] is Mus musculus. As to the kind of experiment: Anti-inflammatory activity against DSS-induced ulcerative colitis C57BL/6J mouse model assessed as restoration of damaged colon mucosal layer at 10 mg/kg, po administered for 7 days and measured on day 7 by ELISA. The format is functional, organism-based.
Assay [10] deals with Mus musculus. As to the kind of experiment: Anti-inflammatory activity against DSS-induced ulcerative colitis C57BL/6J mouse model assessed as reduction in diarrhea at 10 mg/kg, po administered for 7 days and measured daily. Format: functional, organism-based.
Assay [11] has as its system Mus musculus. As to the kind of experiment: Anti-inflammatory activity against DSS-induced ulcerative colitis C57BL/6J mouse model assessed as reduction in IL-23 production at 10 mg/kg, po administered for 7 days and measured on day 7 by ELISA. The format is functional, organism-based.
Assay [12] addresses Exportin-1 (Homo sapiens, UniProt O14980). As to the kind of experiment: Inhibition of nuclear CRM1 (unknown origin) by cell based assay.

The source made the active and inactive calls. No cut-off for these calls is given here.

Chain of Exportin-1 (O14980 whole entry): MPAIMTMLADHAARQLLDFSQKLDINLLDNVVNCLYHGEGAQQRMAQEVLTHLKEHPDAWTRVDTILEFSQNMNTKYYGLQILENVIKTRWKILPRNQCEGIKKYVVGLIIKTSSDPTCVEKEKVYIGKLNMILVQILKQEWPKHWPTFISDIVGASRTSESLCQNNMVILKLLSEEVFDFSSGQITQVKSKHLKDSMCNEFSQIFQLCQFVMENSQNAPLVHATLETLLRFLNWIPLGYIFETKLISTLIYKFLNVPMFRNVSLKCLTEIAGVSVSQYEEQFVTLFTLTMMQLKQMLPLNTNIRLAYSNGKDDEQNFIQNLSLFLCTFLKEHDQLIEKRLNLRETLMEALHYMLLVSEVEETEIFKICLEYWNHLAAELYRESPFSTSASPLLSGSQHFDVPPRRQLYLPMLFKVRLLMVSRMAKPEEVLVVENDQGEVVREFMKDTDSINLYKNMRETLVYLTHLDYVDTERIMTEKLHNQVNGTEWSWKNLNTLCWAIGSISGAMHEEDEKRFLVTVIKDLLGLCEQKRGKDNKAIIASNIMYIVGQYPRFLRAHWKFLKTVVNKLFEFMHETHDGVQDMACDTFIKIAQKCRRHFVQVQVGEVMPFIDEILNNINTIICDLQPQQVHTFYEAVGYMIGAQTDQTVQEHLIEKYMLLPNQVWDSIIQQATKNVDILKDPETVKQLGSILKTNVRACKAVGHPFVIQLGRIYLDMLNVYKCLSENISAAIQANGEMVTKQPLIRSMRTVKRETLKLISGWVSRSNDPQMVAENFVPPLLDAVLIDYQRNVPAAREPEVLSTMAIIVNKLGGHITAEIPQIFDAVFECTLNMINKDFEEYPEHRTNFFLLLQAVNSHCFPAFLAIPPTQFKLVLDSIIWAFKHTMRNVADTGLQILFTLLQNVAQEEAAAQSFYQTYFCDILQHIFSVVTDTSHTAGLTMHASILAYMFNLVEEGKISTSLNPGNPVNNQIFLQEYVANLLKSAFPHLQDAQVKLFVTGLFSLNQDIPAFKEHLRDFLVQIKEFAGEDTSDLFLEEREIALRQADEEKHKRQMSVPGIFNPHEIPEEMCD

For the molecule `O=C(O)C[C@H]1CCc2c1[nH]c1ccc(OCc3ccc(C4CCCC4)c(C(F)(F)F)c3)cc21`, the result in [1], in assay [2], in [3], in [4], in [5] and in assay [6] was Active. In addition, the result in assay [7], in assay [8], in [9], in assay [10] and in assay [11] was Active.

For the molecule `[O-][S+](/C=C/CCN=C=S)c1ccccc1` (configuration not stated), in [12], the IC50 came out at 1.5 µM.
